The structures appear in SMILES notation.

This is an account of results in patent publication US8242159B2, “1,3-dihydro-5-isobenzofurancarbonitrile derivatives and pharmaceutical composition thereof for the treatment of premature ejaculation” (Dong-A Pharmaceutical. Co., Ltd, priority 2007, dated 2012).

For one data set, the target named is T1, 5-HT1B receptor (Rattus norvegicus, UniProt P28564).
T1 construct: Wistar rat-derived cerebral cortical cells; from tissue; host or cells: Wistar rat cerebral cortex
As to the kind of experiment: Radioligand competitive binding assay, [125I]Cyanopindolol. As to conditions: Wistar rat-derived cerebral cortical cells. As to the method: (§1) In addition, ligand binding to 5HT1A, 5-HT1B and 5-HT2C receptors and 5-HT transporter was evaluated with human-derived recombinant CHO cells, Wistar rat-derived cerebral cortical cells, human-derived recombinant CHO-K1 cells, and human-derived recombinant HEK-293 cells. Each cell line was dosed with 10^−5 μM to 10^4 μM of the compounds of Examples 2, 35, 40 and 45, and then incubated with a radio-labeled ligand for competitive binding. Ligands used were […], [^125I]Cyanopindolol, [^3H]Mesulergine and [^3H]Paroxetine, respectively. The competitive binding assay was carried out in 50 mM Tris-HCl buffer at 25° C. or 37° C., for 60 to 90 min.

For data set [1], the target named is hERG (human Ether-a-go-go Related Gene) (Homo sapiens, UniProt Q12809). As to the kind of experiment: Cardiotoxicity test, hERG assay (MDS Pharma). The source says:
To evaluate the safety of the present derivatives in comparison with control drug, conducted was hERG (human Ether-a-go-go Related Gene) assay which is a representative test of safety medical test. This test was requested to trial institute MDS Pharma., which conducted this test.

The next data set deals with T2, 5HT1A receptor (Homo sapiens, UniProt P08908).
T2 construct: expressed in transfected cells; host or cells: CHO cells
T2 sequence (P08908 1-422): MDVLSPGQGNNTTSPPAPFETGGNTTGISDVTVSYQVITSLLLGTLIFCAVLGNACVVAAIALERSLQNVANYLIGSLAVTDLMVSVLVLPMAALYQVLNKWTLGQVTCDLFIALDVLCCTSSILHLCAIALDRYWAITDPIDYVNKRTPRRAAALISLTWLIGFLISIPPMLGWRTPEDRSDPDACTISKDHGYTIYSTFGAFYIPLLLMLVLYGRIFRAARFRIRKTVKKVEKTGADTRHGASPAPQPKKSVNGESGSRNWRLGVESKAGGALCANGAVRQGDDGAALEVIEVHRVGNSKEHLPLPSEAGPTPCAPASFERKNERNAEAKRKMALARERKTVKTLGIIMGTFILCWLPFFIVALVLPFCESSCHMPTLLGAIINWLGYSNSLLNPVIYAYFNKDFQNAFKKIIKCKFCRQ
As to the kind of experiment: Radioligand competitive binding assay. As to conditions: human-derived recombinant CHO cells. As to the method:
as §1

The subject of data set [2] is cellular uptake of dopamine. As to the kind of experiment: Cellular reuptake assay, [3H]dopamine. It is filed as cell-based. Particulars: 10 min, CHO-1 cell line. The procedure: (§2) First, the effects of the present compounds on cellular uptake of dopamine, norepinephrine and serotonin were evaluated with human-derived CHO-1, MDCK and HEK-293 cell lines. Each cell line was dosed with 10^−5 μM to 10^4 μM of the compounds of Examples 2, 35, 40 and 45, and then incubated with [^3H]dopamine, [^3H]norepinephrine and [^3H]serotonin in buffer. After 10 min, the amount of each neurotransmitter taken up into cells was determined by counting radioactivity using a liquid scintillation counter (LSC).

Data set [3] can be described thus: Determination of half-lives of the compounds in rats (oral, plasma HPLC). Particulars: rat, male Sprague-Dawley rats, 10 mg/kg (text also says 5 mg/kg), 0.5% methylcellulose. Type of data set: in vivo. The procedure: The half-lives of present compounds were determined as follows. Each compound was administered orally to male Sprague-Dawley rats weighing approximately 270 g at a dose of 10 mg/kg. 5 mg/kg of each compound was suspended in 0.5% methyl-cellulose and then administered to rats. Blood samples were collected 0.017, 0.083, 0.25, 0.5, 1, 2, 3, 5, 7 and 24 hours after administration, and centrifuged at 1,000 rpm for 3 min to separate plasma. The concentration of each compound in plasma was determined using high performance liquid chromatography, which was performed with a mobile phase of 10 mM ammonium formate (pH 3.0) and acetonitrile (50:50), an […] column (21×100 mm, 3 μm) and a flow rate of 0.2 ml/min.

The test system of another data set is Male Wistar rats. As to the kind of experiment: p-PCA-induced ejaculation in anesthetized rats (ejaculation-delaying effect). It is filed as in vivo, rat. As to conditions: for Ratio: Number of responding animals/total animal number: 50 mg/kg oral in 1% HPMC, p-PCA 5 mg/kg i.p. 80 min later, observed 30 min; for Latency: Time to display the ejaculatory response: 50 mg/kg oral, p-PCA 5 mg/kg i.p., mean ± standard deviation of responding rats. The method in brief:
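Male Wistar rats (240-260 g) received compound orally at 50 mg/kg in 1% HPMC, were anesthetized 60 min later, and 20 min after that were given p-PCA 5 mg/kg i.p. to induce ejaculation. Scored as rhythmic bulbocavernosus contraction plus semen discharge, with six or more animals per compound versus vehicle.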

A further data set concerns the target T3, 5-HT2C receptor (Homo sapiens, UniProt P28335).
T3 construct: expressed in transfected cells; host or cells: CHO-K1 cells
T3 sequence (P28335 33-458): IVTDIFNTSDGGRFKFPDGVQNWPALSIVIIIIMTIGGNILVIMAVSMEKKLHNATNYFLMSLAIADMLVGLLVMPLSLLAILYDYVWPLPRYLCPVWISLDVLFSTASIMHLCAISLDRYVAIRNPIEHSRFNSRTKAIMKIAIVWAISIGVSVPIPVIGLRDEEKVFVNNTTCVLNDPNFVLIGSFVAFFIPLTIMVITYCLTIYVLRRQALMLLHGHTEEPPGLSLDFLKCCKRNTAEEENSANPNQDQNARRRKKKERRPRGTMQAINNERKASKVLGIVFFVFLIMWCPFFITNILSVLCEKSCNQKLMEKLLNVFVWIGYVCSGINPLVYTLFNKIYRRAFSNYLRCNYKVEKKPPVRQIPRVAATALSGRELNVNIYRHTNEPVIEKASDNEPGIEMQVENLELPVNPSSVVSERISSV
As to the kind of experiment: Radioligand competitive binding assay, [3H]Mesulergine. As to conditions: human-derived recombinant CHO-K1 cells. As to the method:
as §1

Another data set deals with T4, 5-HT transporter (Homo sapiens, UniProt P31645).
T4 construct: expressed in transfected cells; host or cells: HEK-293 cells
As to the kind of experiment: Radioligand competitive binding assay, [3H]Paroxetine. Particulars: human-derived recombinant HEK-293 cells. The procedure: as §1

Data set [4] concerns cellular uptake of serotonin. As to the kind of experiment: Cellular reuptake assay, [3H]serotonin. Type of data set: cell-based. Particulars: Homo sapiens, HEK293, 10 min, HEK-293 cell line. The procedure:
as §2

The subject of data set [5] is cellular uptake of norepinephrine. As to the kind of experiment: Cellular reuptake assay, [3H]norepinephrine. It is filed as cell-based. Particulars: 10 min, MDCK cell line. As to the method:
as §2

Data set [6] relates to CHL (Chinese Hamster Lung) cell. As to the kind of experiment: Mutagenicity test: chromosome aberration test. Type of data set: cell-based. As to conditions: 75, 150, 300 μg/ml with metabolic activation; 20, 40, 80 μg/ml without. The procedure:
(§3) To evaluate the safety of the present derivatives, mutagenicity test was conducted. Ames test and chromosome aberration test were conducted with the examples 2, 35, 40 and 45.

The next data set concerns Sprague-Dawley (SD) rats. As to the kind of experiment: Acute toxicity test, single dose, mortality. It is filed as in vivo, rat. Also noted: unit not given here. An excerpt: The present derivatives and citalopram were individually administered orally and intra-venously to SD rats at a single dose.
The subject of data set [7] is Salmonella typhimurium TA98, 100, 1535, 1537, E. coli WP2 uvrA. As to the kind of experiment: Mutagenicity test: Ames test. Particulars: 8, 40, 200, 1000, 2500, 5000 μg/plate, presence/absence of a metabolic activation system. It is filed as cell-based. The procedure: as §3
On the technique in general: The Ames test detects mutagens through reverse mutation in bacteria.

The test system is the same in data set [8]. As to conditions: reported 'in the same test'; which test is not specified; cited from earlier work.

hERG (human Ether-a-go-go Related Gene), sequence (Q12809 whole entry): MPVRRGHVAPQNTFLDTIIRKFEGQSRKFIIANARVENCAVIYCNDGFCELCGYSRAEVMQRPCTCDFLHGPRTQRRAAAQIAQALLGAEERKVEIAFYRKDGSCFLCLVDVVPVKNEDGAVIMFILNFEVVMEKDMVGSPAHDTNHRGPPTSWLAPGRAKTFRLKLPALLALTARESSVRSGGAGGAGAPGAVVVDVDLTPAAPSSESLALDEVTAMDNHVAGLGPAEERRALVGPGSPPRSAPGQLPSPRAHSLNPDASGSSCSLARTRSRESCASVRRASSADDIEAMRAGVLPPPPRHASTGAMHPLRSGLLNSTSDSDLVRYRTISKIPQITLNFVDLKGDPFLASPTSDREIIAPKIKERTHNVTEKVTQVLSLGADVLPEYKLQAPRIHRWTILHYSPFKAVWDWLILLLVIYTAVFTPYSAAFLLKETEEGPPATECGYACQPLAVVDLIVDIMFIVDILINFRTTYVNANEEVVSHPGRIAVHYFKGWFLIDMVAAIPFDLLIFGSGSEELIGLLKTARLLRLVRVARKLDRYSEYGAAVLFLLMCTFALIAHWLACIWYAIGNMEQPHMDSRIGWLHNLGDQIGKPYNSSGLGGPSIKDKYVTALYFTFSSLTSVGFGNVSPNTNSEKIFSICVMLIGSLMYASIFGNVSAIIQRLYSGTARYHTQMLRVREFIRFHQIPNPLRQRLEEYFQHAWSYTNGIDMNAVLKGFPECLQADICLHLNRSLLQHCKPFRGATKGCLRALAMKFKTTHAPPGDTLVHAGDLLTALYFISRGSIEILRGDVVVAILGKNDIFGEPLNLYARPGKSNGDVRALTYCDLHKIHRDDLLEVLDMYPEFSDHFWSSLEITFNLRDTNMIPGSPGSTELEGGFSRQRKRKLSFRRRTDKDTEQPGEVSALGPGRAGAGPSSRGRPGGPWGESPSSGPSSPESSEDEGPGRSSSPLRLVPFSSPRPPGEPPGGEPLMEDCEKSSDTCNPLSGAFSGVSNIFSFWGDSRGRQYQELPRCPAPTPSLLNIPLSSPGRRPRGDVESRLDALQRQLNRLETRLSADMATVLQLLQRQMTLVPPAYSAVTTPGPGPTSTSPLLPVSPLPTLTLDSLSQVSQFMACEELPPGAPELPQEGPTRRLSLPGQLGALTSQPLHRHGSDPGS
T4 sequence (P31645 whole entry): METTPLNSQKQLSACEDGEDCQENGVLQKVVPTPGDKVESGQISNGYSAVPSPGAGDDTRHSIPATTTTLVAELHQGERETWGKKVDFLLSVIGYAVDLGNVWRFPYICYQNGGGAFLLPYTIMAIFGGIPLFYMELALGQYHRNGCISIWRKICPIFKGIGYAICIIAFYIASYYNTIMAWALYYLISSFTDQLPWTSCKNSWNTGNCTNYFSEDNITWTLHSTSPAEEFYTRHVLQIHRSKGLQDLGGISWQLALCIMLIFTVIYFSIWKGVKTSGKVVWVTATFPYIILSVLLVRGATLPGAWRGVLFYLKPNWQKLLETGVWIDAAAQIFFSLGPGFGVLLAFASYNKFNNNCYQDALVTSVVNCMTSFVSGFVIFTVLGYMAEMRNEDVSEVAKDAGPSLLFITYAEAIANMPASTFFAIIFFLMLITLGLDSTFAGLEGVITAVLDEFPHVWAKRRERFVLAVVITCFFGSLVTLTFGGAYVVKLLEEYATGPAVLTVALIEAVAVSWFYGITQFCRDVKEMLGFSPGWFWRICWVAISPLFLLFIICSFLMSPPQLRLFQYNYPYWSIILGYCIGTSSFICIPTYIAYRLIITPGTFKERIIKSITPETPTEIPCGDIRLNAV
T1 sequence (P28564 whole entry): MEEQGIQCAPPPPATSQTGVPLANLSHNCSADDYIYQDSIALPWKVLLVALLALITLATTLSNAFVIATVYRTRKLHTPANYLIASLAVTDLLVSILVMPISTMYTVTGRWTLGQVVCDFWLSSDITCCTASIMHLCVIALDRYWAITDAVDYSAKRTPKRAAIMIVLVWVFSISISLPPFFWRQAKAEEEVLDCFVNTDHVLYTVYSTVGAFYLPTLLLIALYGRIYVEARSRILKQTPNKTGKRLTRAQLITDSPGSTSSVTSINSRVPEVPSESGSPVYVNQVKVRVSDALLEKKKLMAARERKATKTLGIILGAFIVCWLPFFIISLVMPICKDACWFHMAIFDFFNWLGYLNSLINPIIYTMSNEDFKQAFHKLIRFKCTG

Take `N#Cc1ccc2c(c1)COC2(CCCn1ccnc1)c1cccs1.O=C(O)C(=O)O` (centres unmarked) [Ex. 45, 1-{3-(imidazole-1-yl)propyl}-1-(2-thienyl)-1,3-dihydro-5-isobenzofurancarbonitrile oxalate]: the concentration for half-maximal inhibition (IC50) was over 1000 µM at 5-HT1B receptor; 10.6 µM in data set [1]; 898 µM on 5HT1A receptor; 94.2 µM in [2]; 8.88 µM at 5-HT2C receptor; 0.0087 µM at 5-HT transporter. In addition, the results for the IC50 in data set [4] and in data set [5] were 0.465 µM and 67.3 µM, respectively. The time to peak (Tmax) in data set [3] was determined as 15 min. In addition, the half-life in [3] is 63.6 min. Also, in the data set on Male Wistar rats, the “Ratio: Number of responding animals/total animal number” value is recorded as 2/9. Further, the “Latency: Time to display the ejaculatory response” value with Male Wistar rats is 676 ± 10 s. For the same compound, the “chromosome aberration test result” value in data set [6] is “negative”. The minimum lethal dose in the data set with Sprague-Dawley (SD) rats (Intravenously, female SD rats) is 50; in the data set on Sprague-Dawley (SD) rats (Intravenously, male SD rats), 50; with Sprague-Dawley (SD) rats (Orally, female SD rats), 1000; in the data set on Sprague-Dawley (SD) rats (Orally, male SD rats), 1000. Further, the Ames test result in data set [7] is “negative”.

As to `CN(C)CCCC1(c2ccc(F)cc2)OCc2cc(C#N)ccc21` (centres unmarked) [Citalopram, reference compound], the “mutagenicity test result as reported” value in [8] was “positive”. For the same compound, the Tmax in data set [3] came out at 19.8 min. The half-life in data set [3] is 194 min. Besides, the minimum lethal dose with Sprague-Dawley (SD) rats (Intravenously, female SD rats) was found to be 30; with Sprague-Dawley (SD) rats (Intravenously, male SD rats), 30; with Sprague-Dawley (SD) rats (Orally, female SD rats), 650; with Sprague-Dawley (SD) rats (Orally, male SD rats), 650.

As to `COc1ccc(C2(CCCN(C)C)OCc3cc(C#N)ccc32)cc1.O=C(O)C(=O)O` (centres unmarked) [Ex. 2, 1-{3-(dimethylamino)propyl}-1-(4-methoxyphenyl)-1,3-dihydro-5-isobenzofurancarbonitrile oxalate], the IC50 on 5-HT1B receptor is over 1000 µM; in data set [1], 19.4 µM; at 5HT1A receptor it was 805 µM; in data set [2], 85.7 µM; at 5-HT2C receptor, 7.12 µM; at 5-HT transporter, under 0.0001 µM. Moreover, the IC50 in data set [4] came to 0.304 µM; in [5], 36.5 µM. Besides, the Tmax in [3] came to 19.8 min. Besides, in [3], the half-life is 76.8 min. Moreover, the “Ratio: Number of responding animals/total animal number” value with Male Wistar rats is listed as 0/9. In addition, the “chromosome aberration test result” value in [6] is recorded as “negative”. The minimum lethal dose worked out at 70 with Sprague-Dawley (SD) rats (Intravenously, female SD rats); 70 in the data set with Sprague-Dawley (SD) rats (Intravenously, male SD rats); 1000 in the data set on Sprague-Dawley (SD) rats (Orally, female SD rats); 1000 with Sprague-Dawley (SD) rats (Orally, male SD rats). For the same compound, the Ames test result in data set [7] is reported as “negative”.

Turning to `CN(C)CCCC1(c2ccc(N(C)C)cc2)OCc2cc(C#N)ccc21.O=C(O)C(=O)O` (centres unmarked) [Ex. 35, 1-(4-dimethylaminophenyl)-1-{3-(dimethylamino)propyl}-1,3-dihydro-5-isobenzofurancarbonitrile oxalate], the IC50 at 5-HT1B receptor was over 1000 µM; in [1], 12.2 µM; at 5HT1A receptor it was 1120 µM; in data set [2], 100 µM; on 5-HT2C receptor, 898 µM; at 5-HT transporter, 0.001 µM. The half-maximal inhibitory concentration (IC50) stood at 0.425 µM in [4] and 53.2 µM in data set [5]. Moreover, the Tmax in data set [3] came out at 15 min. Also, in data set [3], the half-life was 211 min. The “Ratio: Number of responding animals/total animal number” value in the data set with Male Wistar rats is recorded as 0/9. In addition, the “chromosome aberration test result” value in [6] is “negative”. Further, the minimum lethal dose in the data set with Sprague-Dawley (SD) rats (Intravenously, female SD rats) was found to be 50; in the data set with Sprague-Dawley (SD) rats (Intravenously, male SD rats), 50; in the data set on Sprague-Dawley (SD) rats (Orally, female SD rats) it was 1000; in the data set with Sprague-Dawley (SD) rats (Orally, male SD rats), 1000. In addition, the Ames test result in [7] is recorded as “negative”.

For the compound `CN(C)CCCC1(c2cccs2)OCc2cc(C#N)ccc21.O=C(O)C(=O)O` (centres unmarked) [Ex. 40, 1-{3-(dimethylamino)propyl}-1-(2-thienyl)-1,3-dihydro-5-isobenzofurancarbonitrile oxalate], the IC50 was over 1000 µM at 5-HT1B receptor; 8.7 µM in data set [1]; 967 µM on 5HT1A receptor; 124 µM in data set [2]; 10.1 µM on 5-HT2C receptor; 0.0125 µM on 5-HT transporter. The figures for the 50% inhibitory concentration (IC50) in data set [4] and in data set [5] were 0.531 µM and 69.1 µM, respectively. Also, the Tmax in data set [3] amounted to 15 min. Besides, the half-life in [3] was 75.6 min. In addition, in the data set with Male Wistar rats, the “Ratio: Number of responding animals/total animal number” value is reported as 3/9. In the data set with Male Wistar rats, the “Latency: Time to display the ejaculatory response” value amounted to 876 ± 110 s. The “chromosome aberration test result” value in data set [6] is given as “negative”. The minimum lethal dose with Sprague-Dawley (SD) rats (Intravenously, female SD rats) amounted to 50; in the data set with Sprague-Dawley (SD) rats (Intravenously, male SD rats), 50; with Sprague-Dawley (SD) rats (Orally, female SD rats), 800; with Sprague-Dawley (SD) rats (Orally, male SD rats), 800. In addition, in data set [7], the Ames test result is “negative”.

By IC50 is commonly meant the concentration at which inhibition is half-maximal. By Tmax is commonly meant the time from dosing to the highest level. A word on the half-life: it is the time in which the quantity being followed falls by half.
